Laboratory results published in patent US20250099448A1, “HETEROCYCLIC COMPOUNDS” (Hoffmann-La Roche Inc., priority 2022, published 2025).

Biological target: T1, MAGL protein (Homo sapiens, UniProt Q99685)
T1 sequence (Q99685 1-303): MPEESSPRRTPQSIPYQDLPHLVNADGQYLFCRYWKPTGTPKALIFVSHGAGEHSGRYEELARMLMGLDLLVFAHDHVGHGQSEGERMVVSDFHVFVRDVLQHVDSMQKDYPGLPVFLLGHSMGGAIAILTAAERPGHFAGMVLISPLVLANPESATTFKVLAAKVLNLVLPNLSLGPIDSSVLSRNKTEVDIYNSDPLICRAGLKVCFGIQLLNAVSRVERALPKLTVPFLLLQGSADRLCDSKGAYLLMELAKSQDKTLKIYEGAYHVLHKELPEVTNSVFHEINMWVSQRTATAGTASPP
Experiment: 2-AG assay: MAGL inhibitory activity by hydrolysis of 2-arachidonoylglycerol to arachidonic acid, followed by mass spectrometry
Type: biochemical
Conditions: 8 μM 2-arachidonoylglycerol, 15 min preincubation, 30 min reaction at RT, RapidFire MS readout
Procedure, shortened: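 MAGL was preincubated 15 min at RT with compound (12.5 to […], 3-fold steps) in 50 mM TRIS, 1 mM EDTA, 0.01% Tween-20, 2.5% DMSO. The reaction ran 30 min at RT with 8 μM 2-AG. Arachidonic acid was quantified by RapidFire SPE-MS/MS against a d8-arachidonic acid internal standard.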

Compound | IC50 [nM]
N#Cc1cc(CC2CC3(C2)CN(C(=O)N2CC4(CC(c5nc(C6COC6)n[nH]5)C4)C2)C3)cc(C(F)(F)F)c1 [compound 759] | 11
O=C(N1CC(c2ccc(C3CC(C(F)F)C3)cc2)C1)N1CC2(CC(c3nnc(C4(O)CC4)[nH]3)C2)C1 (stereo not drawn) [compound 282] | 1.03
O=C(O)c1ccccc1-c1ccc(C2CN(C(=O)N3CC4(CC(c5nnc(C6CC6)[nH]5)C4)C3)C2)cc1 [Example 390, 2-[4-[1-[6-(5-cyclopropyl-4H-1,2,4-triazol-3-yl)-2-azaspiro[3.3]heptane-2-carbonyl]azetidin-3-yl]phenyl]benzoic Acid] | 1.06
O=C(N1CC2(CC(c3nc(C4CC4)n[nH]3)C2)C1)N1CC2(CN(Cc3cnn(CC(F)(F)F)c3)C2)C1 [compound 568] | 408
O=C(N1CC2(CC(Cc3cn[nH]c3C(F)(F)F)C2)C1)N1CC2(CC(c3nc(C4CC4)n[nH]3)C2)C1 [compound 607] | 0.08
O=C(N1CC2(CC(Cc3cc(F)cc(S(=O)(=O)C(F)(F)F)c3)C2)C1)N1CC2(CC(c3nc(C4(O)CC4)n[nH]3)C2)C1 [compound 518] | 0.22
CS(=O)(=O)c1cc(F)cc(CC2CC3(C2)CN(C(=O)N2CC4(CC(c5nnc(C6(O)CC6)[nH]5)C4)C2)C3)c1 [compound 19] | 4.81
O=C(N1CC2(CC(Oc3ncc(F)cc3Cl)C2)C1)N1CC2(CC(c3nc(C4CC4)n[nH]3)C2)C1 [compound 622] | 0.63
CS(=O)(=O)c1cc(C(F)(F)F)ccc1CN1CC2(C1)CN(C(=O)N1CC3(CC(c4nc(C5CC5)n[nH]4)C3)C1)C2 [compound 889] | 2.74
CS(=N)(=O)c1ccc(CC2CC3(C2)CN(C(=O)N2CC4(CC(c5nc(C6CC6)n[nH]5)C4)C2)C3)cc1C(F)(F)F (stereo not drawn) [compound 952] | 1.74
N=S(=O)(c1ccc(CC2CC3(C2)CN(C(=O)N2CC4(CC(c5nc(C6CC(F)(F)C6)n[nH]5)C4)C2)C3)cc1)C(F)(F)F (stereo not drawn) [compound 687] | 54.1
O=C(N1CC2(CC(Nc3ccc(C(F)(F)F)nn3)C2)C1)N1CC2(CC(c3nnc(C4CC4)[nH]3)C2)C1 [compound 57] | 25.7
O=C(N1CC2(CC(c3nc(C4CC(F)(F)C4)n[nH]3)C2)C1)N1CC2(CN(Cc3sncc3C(F)(F)F)C2)C1 [compound 655] | 557
O=C(N1CC2(CC(Cc3cccc(S(=O)(=O)C(F)(F)F)c3)C2)C1)N1CC2(CC(c3nc(C4CC(F)(F)C4)n[nH]3)C2)C1 [compound 604] | 6.89
O=C(N1CC(N(Cc2ccc(C(F)(F)F)cc2F)CC2CC2)C1)N1CC2(CC(c3nnc(C4CC4)[nH]3)C2)C1 [compound 201] | 17
O=C(N1CC(NS(=O)(=O)c2cccc(C(F)(F)F)c2)C1)N1CC2(CC(c3nnc(C4CC4)[nH]3)C2)C1 [compound 202] | 332
N#Cc1ccc(CC2CC3(C2)CN(C(=O)N2CC4(CC(c5nc(C6CC6)n[nH]5)C4)C2)C3)c(F)c1 [compound 772] | 0.05
O=C(N1CC(CNS(=O)(=O)c2ccc(C(F)(F)F)cc2)C1)N1CC2(CC(c3nnc(C4(O)CC4)[nH]3)C2)C1 [compound 210] | 482
NC(=O)C(c1ccc(F)cc1)C1CCN(C(=O)N2CC3(CC(c4nnc(C5CC5)[nH]4)C3)C2)CC1 (stereo not drawn) [compound 362] | 106
O=C(N1CC(c2ccc(N3CC4(CCCC4)C3)nc2)C1)N1CC2(CC(c3nnc(C4CC4)[nH]3)C2)C1 [compound 302] | 0.48
O=C(N1CC2(CC(Cc3ccc(C(F)(F)F)cc3F)C2)C1)N1CC2(CC(c3nc(C4CC(F)(F)C4)n[nH]3)C2)C1 [compound 467] | 0.33
NC(=O)[C@@H]1CCCCN1c1ccc(C2CN(C(=O)N3CC4(CC(c5nnc(C6CC6)[nH]5)C4)C3)C2)cc1 [Example 394, (2S)-1-[4-[1-[6-(5-cyclopropyl-4H-1,2,4-triazol-3-yl)-2-azaspiro[3.3]heptane-2-carbonyl]azetidin-3 yl]phenyl]piperidine-2-carboxamide] | 1.49
CC(C)(O)C1CN(c2ccc(C3CN(C(=O)N4CC5(CC(c6nnc(C7CC7)[nH]6)C5)C4)C3)cn2)C1 [compound 298] | 8.03
O=C(N1CC(C23CC(NCC4(C(F)(F)F)CC4)(C2)C3)C1)N1CC2(CC(c3nc(C4(O)CC4)n[nH]3)C2)C1 [compound 825] | 4.37
O=C(N1CC2(CC(c3nc(C4CC4)n[nH]3)C2)C1)N1CC2(CN(Cc3sncc3C(F)(F)F)C2)C1 [compound 700] | 2.56
O=C(N1CC2(CC(NC3(C(F)(F)F)CC3)C2)C1)N1CC2(CC(c3nnc(C4CC4)[nH]3)C2)C1 [compound 70] | 7.25

Compound | IC50 [nM]
O=C(c1ccc(-c2ccccn2)s1)N1CCN(C(=O)N2CC3(CC(c4nnc(C5CC5)[nH]4)C3)C2)CC1 [Example 870, [4-[6-(5-cyclopropyl-4H-1,2,4-triazol-3-yl)-2-azaspiro[3.3]heptane-2-carbonyl]piperazino]-[5-(2-pyridyl)-2-thienyl]methanone] | 821
O=C(N1CC2(CC(NS(=O)(=O)c3cccc(C(F)(F)F)c3)C2)C1)N1CC2(CC(c3nnc(C4CC4)[nH]3)C2)C1 [compound 56] | 0.74
O=C(N1CC2(CC(c3nc(C4CC4)n[nH]3)C2)C1)N1CC2(CN(Cc3conc3C(F)(F)F)C2)C1 [compound 663] | 13.1
CS(=O)(=O)c1ccc(C23CC(C4CN(C(=O)N5CC6(CC(c7nc(C8CC8)n[nH]7)C6)C5)C4)(C2)C3)cc1 [compound 786] | 8.01
O=C(N1CC2(CC(Oc3cncc(C(F)(F)F)c3)C2)C1)N1CC2(CC(c3nc(C4CC4)n[nH]3)C2)C1 [compound 520] | 2.23
O=C(N1CC(OCc2ccc(C(F)(F)F)cc2F)C1)N1CC2(CC(c3nnc(C4CC4)[nH]3)C2)C1 [compound 311] | 2.35
CS(=N)(=O)c1cc(F)ccc1CC1CC2(C1)CN(C(=O)N1CC3(CC(c4nc(C5CC5)n[nH]4)C3)C1)C2 (stereo not drawn) [Example 735, [6-(3-cyclopropyl-1H-1,2,4-triazol-5-yl)-2-azaspiro[3.3]heptan-2-yl]-[6-[4-fluoro-2-(methylsulfonimidoyl)benzyl]-2-azaspiro[3.3]heptan-2-yl]methanone] | 2.34
O=C(N1CC(OCC2CC3C(C2)C3(F)F)C1)N1CC2(CC(c3nnc(C4CC4)[nH]3)C2)C1 (stereo not drawn) [compound 327] | 24.9
Cn1nc(CC2CC3(C2)CN(C(=O)N2CC4(CC(c5nc(C6COC6)n[nH]5)C4)C2)C3)cc1C(F)(F)F [compound 744] | 13.6
O=C(N1CC2(CC(Cc3cc(C(F)(F)F)n[nH]3)C2)C1)N1CC2(CC(c3nc(C4CC4)n[nH]3)C2)C1 [compound 404] | 0.29
CNC(=O)c1ccccc1CN1CC2(C1)CN(C(=O)N1CC3(CC(c4nnc(C5CC5)[nH]4)C3)C1)C2 [compound 173] | 230
O=C(N1CC2(CC(Cc3cc(C(F)(F)F)n(CC(F)(F)F)n3)C2)C1)N1CC2(CC(c3nc(C4CC4)n[nH]3)C2)C1 [compound 793] | 0.07
O=C(N1CC2(CC(c3nnc(C4CC4)[nH]3)C2)C1)N1CC2(C1)CN(S(=O)(=O)c1cncc(C(F)(F)F)c1)C2 [compound 109] | 20.1
O=C(N1CC2(CC(c3nnc(C4CC4)[nH]3)C2)C1)N1CC2(CN(Cc3ccc(F)cc3F)C2)C1 [compound 156] | 4.08
O=C(N1CC2(CCC(Cc3cnc(C(F)(F)F)cn3)CC2)C1)N1CC2(CC(c3nnc(C4(O)CC4)[nH]3)C2)C1 [compound 137] | 6.79
O=C(N1CC2(CCN(Cc3cc(C(F)(F)F)no3)CC2)C1)N1CC2(CC(c3nc(C4CC4)n[nH]3)C2)C1 [Example 955, [6-(3-cyclopropyl-1H-1,2,4-triazol-5-yl)-2-azaspiro[3.3]heptan-2-yl]-[7-[[3-(trifluoromethyl)isoxazol-5-yl]methyl]-2,7-diazaspiro[3.5]nonan-2-yl]methanone] | 23.1
Cn1cc(OC2CC3(C2)CN(C(=O)N2CC4(CC(c5nc(C6CC6)n[nH]5)C4)C2)C3)c(C(F)(F)F)n1 [compound 425] | 2.22
N#Cc1cc(C(F)(F)F)ncc1OC1CCC2(C1)CN(C(=O)N1CC3(CC(c4nnc(C5CC5)[nH]4)C3)C1)C2 (racemic) [compound 154] | 3.5
O=C(N1CC(C23CC(NCC4(C(F)(F)F)CC4)(C2)C3)C1)N1CC2(CC(c3nnc(C4CC4)[nH]3)C2)C1 [compound 342] | 0.49
N=S(=O)(c1cccc(OC2CC3(C2)CN(C(=O)N2CC4(CC(c5nc(C6CC6)n[nH]5)C4)C2)C3)c1)C(F)(F)F (stereo not drawn) [compound 848] | 0.67
O=C(N1CC2(CC(c3nc(C4CC4)n[nH]3)C2)C1)N1CC2(CN(Cc3ccc(=O)[nH]c3)C2)C1 [compound 541] | 1110
O=C(N1CC(NCc2cc(C(F)(F)F)ccc2Cl)C1)N1CC2(CC(c3nnc(C4CC4)[nH]3)C2)C1 [compound 188] | 20.7
Cn1ccc(CN2CC3(C2)CN(C(=O)N2CC4(CC(c5nc(C6CC6)n[nH]5)C4)C2)C3)n1 [Example 902, [6-(3-cyclopropyl-1H-1,2,4-triazol-5-yl)-2-azaspiro[3.3]heptan-2-yl]-[6-[(1-methylpyrazol-3-yl)methyl]-2,6-diazaspiro[3.3]heptan-2-yl]methanone] | 3110
Cc1cn(-c2ccc(C3CN(C(=O)N4CC5(CC(c6nnc(C7CC7)[nH]6)C5)C4)C3)cc2)cn1 [Example 806, [6-(5-cyclopropyl-4H-1,2,4-triazol-3-yl)-2-azaspiro[3.3]heptan-2-yl]-[3-[4-(4-methylimidazol-1-yl)phenyl]azetidin-1-yl]methanone] | 9.72
O=C(N1CC2(CC(c3nnc(C4(O)CC4)[nH]3)C2)C1)N1CC2(C1)CN(S(=O)(=O)c1cccc(C(F)(F)F)c1)C2 [compound 100] | 66.1
